From patent US20180371076A1, “MATERNAL TH17 CELLS AND PSYCHIATRIC DISORDERS” (New York University, priority 2017, published 2018)
Entries after “also recorded” stand apart in the source; their conditions may differ.

Columns and labels:
Format in all cases: in vivo, mouse
IL-17Ra mRNA = IL-17Ra mRNA in fetal brain (real-time PCR, in situ hybridization); settings: E14.5
Description: In Situ Hybridization. E14.5 embryos from PBS or poly(I:C)-treated mothers were collected in ice-cold PBS and subsequently fixed in 4% paraformaldehyde for 4 h at 4° C. Isolated brains were dehydrated in 30% sucrose/PBS solution overnight, and then embedded in Tissue Tek O.C.T. compound (Sakura Finetek, Torrance, Calif.). The blocks were sectioned at 16-μm thickness using a cryostat (Leica). Fluorescent in situ hybridization was performed using a branched cDNA probe with amplification technology (ViewRNA ISH Tissue Assay kit, Panomics, Santa Clara) according to the manufacturer's protocol. […]
Real-Time PCR Total RNA was extracted from the cerebral cortex of E14.5 fetal brain of male embryo (RNase plus mini kit, Qiagen) as well as from the decidua- and the placenta-derived mononuclear cells and reverse transcribed into cDNA using oligodT (ProtoScript first strand cDNA synthesis kit, NEB) according to the manufacturer's instructions. mRNA levels of target genes (il17ra, il17rc, il17a and il6) were quantified with a Real-Time PCR System (CFX connect Real-Time PCR, Bio-Rad) using fluorescent SYBR Green technology (Bio-Rad). […] Changes in relative gene expression normalized to gapdh or actin levels were determined using the relative threshold cycle method based on the Cont-PBS group. […]

[1] = Properties of the litter (gender ratio, litter size, offspring weight); settings: PBS vs poly(I:C), control vs anti-IL-17a treated dams
[2] = tested on: cortex of the fetal brain; assay: Cortical development: SATB2/TBR1/CTIP2 immunohistochemistry of fetal and adult offspring brain; settings: offspring of MIA vs PBS-treated mothers
IL-6 = IL-6 ELISA of maternal serum; settings: poly(I:C) 20 mg/kg i.p. at E12.5, 3 h, vs PBS
Description: (§1) Cell preparation, Flow cytometry, ELISA. Embryos at each implantation site were dissected in ice-cold HBSS containing Ca^2+ and Mg^2+. Myometrium was first peeled off of the decidua and embryos were discarded. Dissected decidual and placental tissues were then minced and enzymatically dissociated in HBSS containing 0.28 Wunsch units (WU)/mL Liberase (Roche) and 30 μg/ml DNase I (Roche) for 30 min at 37° C. with intermittent mixing. Digested tissues were washed in PBS containing 5 mM EDTA and 5% fetal bovine serum and then incubated again in the same buffer for 15 min at 37° C. prior to filtration through a cell strainer. After separation on a discontinuous 40% & 80% Percoll gradient, the mononuclear cell fraction was treated with ACK lysis buffer (Lonza). Mononuclear cells (1×10^6 cells/mL) were stimulated with phorbol 12-myristate 13-acetate (PMA, 50 ng/mL; Sigma), ionomycin (500 ng/mL; Sigma) in T cell media: RPMI 1640 (Invitrogen) supplemented with 10% (v/v) heat-inactivated FBS (Hyclone), 50 U penicillin-streptomycin (Invitrogen), 2 mM glutamine, and 50 μM β-mercaptoethanol. Cell culture supernatant was used for ELISA analyses. For flow cytometry, cells were incubated for 5 h with PMA, ionomycin and GolgiStop (BD). […] For ELISA with sera and placenta/decidua extract, IL-6 (Ebioscience), IL-17a (Biolgened), and IL-10 (BD) were measured according to the manufacturer's protocol. […]

IL-10 = IL-10 ELISA of maternal serum and placenta/decidua extracts; settings: poly(I:C) at E12.5
Description: as §1

poly(I:C)
IL-17Ra mRNA in fetal brain (real-time PCR) (IL-17Ra mRNA; induction of MIA): strongly augmented
IL-17Ra mRNA in fetal brain cortex (in situ hybridization) (IL-17Ra mRNA; poly(I:C) injection of pregnant dams): strongly up-regulated
gender ratios, litter sizes and weights [1]: not affected
cortical organization by Golgi staining [2]: disorganized cortical regions
serum IL-6 (IL-6): strong induction
IL-10 in serum and placenta/decidua extracts (IL-10): not affected; also recorded: did not affect
